Laboratory results: ChEMBL document CHEMBL5505958, “Optimization of sequence and chiral content enhances therapeutic potential of tilapia piscidin peptides” (Eur J Med Chem, 2024)
Calls of active or inactive are those of the source.

Experiments:
[1] = system: Klebsiella pneumoniae; assay: Bactericidal activity against Klebsiella pneumoniae BAA 2473 assessed as inhibition of bacterial growth in presence of 10 microg/ml of trypsin (reference value: 1.56 to 3.13 microM); type: functional
[2] = system: Salmonella typhimurium; assay: Antibacterial activity against Salmonella typhimurium DT104 assessed as inhibition of bacterial growth incubated for 16 to 20 hrs; type: functional, Salmonella enterica subsp. enterica serovar Typhimurium; conditions: Salmonella enterica, time 16-20 hrs
[3] = system: Klebsiella pneumoniae; assay: Bactericidal activity against Klebsiella pneumoniae BAA 2473 assessed as inhibition of bacterial growth in presence of 10 microg/ml of chymotrypsin (reference value: 1.56 to 3.13 microM); type: functional
[4] = system: Klebsiella pneumoniae; assay: Bactericidal activity against Klebsiella pneumoniae BAA 2473 assessed as inhibition of bacterial growth in presence of 0.1 microg/ml of pepsin (reference value: 1.56 to 3.13 microM); type: functional
[5] = system: Klebsiella aerogenes; assay: Antibacterial activity against Enterobacter aerogenes 15630 assessed as inhibition of bacterial growth incubated for 16 to 20 hrs; type: functional; conditions: time 16-20 hrs
[6] = system: Rhizopus arrhizus; assay: Fungicidal activity against Rhizopus oryzae 34550 assessed as inhibition of fungal growth incubated for 16 to 20 hrs in presence of human serum; type: functional; conditions: time 16-20 hrs
[7] = system: Klebsiella pneumoniae; assay: Bactericidal activity against Klebsiella pneumoniae 10692 assessed as inhibition of bacterial growth incubated for 16 to 20 hrs; type: functional; conditions: time 16-20 hrs
[8] = system: Escherichia coli; assay: Bactericidal activity against Escherichia coli 10675 assessed as inhibition of bacterial growth incubated for 16 to 20 hrs in presence of human serum; type: functional; conditions: time 16-20 hrs
[9] = system: Salmonella typhimurium; assay: Bactericidal activity against Salmonella typhimurium DT104 assessed as inhibition of bacterial growth incubated for 16 to 20 hrs in presence of human serum; type: functional, Salmonella enterica subsp. enterica serovar Typhimurium; conditions: Salmonella enterica, time 16-20 hrs
[10] = system: Pseudomonas aeruginosa; assay: Antibacterial activity against Pseudomonas aeruginosa 19660 assessed as inhibition of bacterial growth incubated for 16 to 20 hrs in presence of human serum; type: functional; conditions: time 16-20 hrs
[11] = system: Klebsiella pneumoniae; assay: Antibacterial activity against Klebsiella pneumoniae BAA 2473 assessed as inhibition of bacterial growth incubated for 16 to 20 hrs; type: functional; conditions: time 16-20 hrs
[12] = system: Pseudomonas aeruginosa; assay: Bactericidal activity against Pseudomonas aeruginosa 19660 assessed as inhibition of bacterial growth incubated for 16 to 20 hrs in presence of human serum; type: functional; conditions: time 16-20 hrs
[13] = system: Klebsiella oxytoca; assay: Antibacterial activity against Klebsiella oxytoca 13985 assessed as inhibition of bacterial growth incubated for 16 to 20 hrs in presence of human serum; type: functional; conditions: time 16-20 hrs
[14] = system: Klebsiella pneumoniae; assay: Antibacterial activity against Klebsiella pneumoniae BAA 2473 assessed as inhibition of bacterial growth in presence of 0.1 microg/ml of chymotrypsin (reference value: 1.56 to 3.13 microM); type: functional
[15] = system: Staphylococcus haemolyticus; assay: Bactericidal activity against Staphylococcus haemolyticus 15237 assessed as inhibition of bacterial growth incubated for 16 to 20 hrs; type: functional; conditions: time 16-20 hrs
[16] = system: Klebsiella pneumoniae; assay: Antibacterial activity against Klebsiella pneumoniae BAA 2473 assessed as inhibition of bacterial growth in presence of 0.1 microg/ml of proteinase K (reference value: 1.56 to 3.13 microM); type: functional
[17] = system: Klebsiella pneumoniae; assay: Induction of morphological changes in Klebsiella pneumoniae BAA 2473 assessed as membrane deformations with protruding granules at by transmission electron microscopy analysis; type: functional, organism-based
[18] = system: Cell membrane; assay: Induction of cell membrane depolarization in Klebsiella pneumoniae BAA 2473 assessed as increase in fluorescence intensity at 1 times MIC incubated for 40 mins by DiBAC4(3) fluorescent dye based assay; type: cell membranes
[19] = system: Klebsiella oxytoca; assay: Bactericidal activity against Klebsiella oxytoca 13985 assessed as inhibition of bacterial growth incubated for 16 to 20 hrs in presence of human serum; type: functional; conditions: time 16-20 hrs
[20] = system: Enterococcus faecium; assay: Antibacterial activity against Enterococcus faecium 10067 assessed as inhibition of bacterial growth incubated for 16 to 20 hrs; type: functional; conditions: time 16-20 hrs
[21] = system: Salmonella enterica; assay: Antibacterial activity against Salmonella enterica 15455 assessed as inhibition of bacterial growth incubated for 16 to 20 hrs; type: functional; conditions: time 16-20 hrs
[22] = system: Staphylococcus haemolyticus; assay: Antibacterial activity against Staphylococcus haemolyticus 15237 assessed as inhibition of bacterial growth incubated for 16 to 20 hrs; type: functional; conditions: time 16-20 hrs
[23] = system: Enterococcus faecalis; assay: Antibacterial activity against Enterococcus faecalis 10066 assessed as inhibition of bacterial growth incubated for 16 to 20 hrs; type: functional; conditions: time 16-20 hrs
[24] = system: Acinetobacter baumannii; assay: Antibacterial activity against Acinetobacter baumannii 10591 assessed as inhibition of bacterial growth incubated for 16 to 20 hrs in presence of human serum; type: functional; conditions: time 16-20 hrs
[25] = system: Klebsiella pneumoniae; assay: Antibacterial activity against Klebsiella pneumoniae BAA 2473 assessed as inhibition of bacterial growth in presence of 1 microg/ml of proteinase K (reference value: 1.56 to 3.13 microM); type: functional
[26] = system: Acinetobacter baumannii; assay: Bactericidal activity against Acinetobacter baumannii 10591 assessed as inhibition of bacterial growth incubated for 16 to 20 hrs; type: functional; conditions: time 16-20 hrs
[27] = system: Klebsiella pneumoniae; assay: Antibacterial activity against Klebsiella pneumoniae BAA 2473 assessed as inhibition of bacterial growth in presence of 10 microg/ml of pepsin (reference value: 1.56 to 3.13 microM); type: functional
[28] = system: Staphylococcus aureus; assay: Bactericidal activity against Staphylococcus aureus 10780 assessed as inhibition of bacterial growth incubated for 16 to 20 hrs in presence of human serum; type: functional; conditions: time 16-20 hrs
[29] = system: Klebsiella pneumoniae; assay: Bactericidal activity against Klebsiella pneumoniae BAA 2473 assessed as inhibition of bacterial growth incubated for 16 to 20 hrs; type: functional; conditions: time 16-20 hrs
[30] = system: Vibrio vulnificus; assay: Antibacterial activity against Vibrio vulnificus 204 assessed as inhibition of bacterial growth incubated for 16 to 20 hrs; type: functional; conditions: time 16-20 hrs
[31] = system: Klebsiella pneumoniae; assay: Antibacterial activity against Klebsiella pneumoniae BAA 2473 assessed as inhibition of bacterial growth in presence of 1 microg/ml of trypsin (reference value: 1.56 to 3.13 microM); type: functional
[32] = system: Klebsiella pneumoniae; assay: Bactericidal activity against Klebsiella pneumoniae BAA 2473 assessed as inhibition of bacterial growth in presence of 0.1 microg/ml of proteinase K (reference value: 1.56 to 3.13 microM); type: functional
[33] = system: Acinetobacter baumannii; assay: Bactericidal activity against Acinetobacter baumannii 10591 assessed as inhibition of bacterial growth incubated for 16 to 20 hrs in presence of human serum; type: functional; conditions: time 16-20 hrs
[34] = system: Klebsiella pneumoniae; assay: Antibacterial activity against Klebsiella pneumoniae BAA 2473 assessed as inhibition of bacterial growth in presence of 10 microg/ml of chymotrypsin (reference value: 1.56 to 3.13 microM); type: functional
[35] = system: Klebsiella pneumoniae; assay: Antibacterial activity against Klebsiella pneumoniae BAA 2473 assessed as inhibition of bacterial growth in presence of 10 microg/ml of proteinase K (reference value: 1.56 to 3.13 microM); type: functional
[36] = system: Vibrio vulnificus; assay: Bactericidal activity against Vibrio vulnificus 204 assessed as inhibition of bacterial growth incubated for 16 to 20 hrs; type: functional; conditions: time 16-20 hrs
[37] = system: Klebsiella pneumoniae; assay: Antibacterial activity against Klebsiella pneumoniae BAA 2473 assessed as inhibition of bacterial growth in presence of meropenem; type: functional
[38] = system: Klebsiella pneumoniae; assay: Antibacterial activity against Klebsiella pneumoniae BAA 2473 assessed as inhibition of bacterial growth in presence of doxycycline; type: functional
[39] = system: Cell membrane; assay: Induction of outer cell membrane permeabilization in Klebsiella pneumoniae BAA 2473 assessed as increase in fluorescence intensity by PI staining based analysis; type: cell membranes
[40] = system: Pseudomonas aeruginosa; assay: Antibacterial activity against Pseudomonas aeruginosa 19660 assessed as inhibition of bacterial growth incubated for 16 to 20 hrs; type: functional; conditions: time 16-20 hrs
[41] = system: Klebsiella pneumoniae; assay: Synergistic antibacterial activity against Klebsiella pneumoniae BAA 2473 assessed as fractional inhibitory concentration index in presence of doxycycline by checkerboard assay; type: functional

H-FIHHIIGGLFSAGKAIHRLIRRRRR-OH
3.13 µM: MBC [4] | MIC [21] | MIC [23] | MBC [29] | MIC [30] | MBC [36]
0.39 µM: MIC [20]
active: Activity [17] | Activity [18]
> 100 µM: MBC [1] | MBC [3] | MBC [8] | MBC [9] | MIC [10] | MIC [13] | MBC [19] | MIC [25] | MIC [27] | MIC [31] | MIC [34] | MIC [35]
0.78 µM: MIC [5] | MBC [7]
100 µM: MBC [6] | MBC [12] | MIC [24] | MBC [33]
1.56 µM: MIC [11] | MIC [14] | MBC [15] | MIC [16] | MIC [22] | MBC [26] | MBC [32]
50 µM: MBC [28]
6.25 µM: MIC [2]

CC(C)C[C@H](NC(=O)[C@@H](C)NC(=O)[C@@H](CCCCN)NC(=O)[C@H](CC(C)C)NC(=O)[C@@H](CC(C)C)NC(=O)[C@@H](CCCCN)NC(=O)[C@H](CCCCN)NC(=O)[C@@H](CC(C)C)NC(=O)[C@H](N)Cc1ccccc1)C(=O)N[C@H](Cc1ccccc1)C(=O)N[C@H](CO)C(=O)N[C@@H](C)C(=O)N1CCC[C@@H]1C(=O)N[C@H](CCCCN)C(=O)N[C@@H](C)C(=O)N[C@H](CC(C)C)C(=O)N[C@H](CCCCN)C(=O)N[C@@H](CCCNC(=N)N)C(=O)N[C@H](CC(C)C)C(=O)N[C@H](CC(C)C)C(=O)N[C@@H](CCCNC(=N)N)C(=O)N[C@H](CCCNC(=N)N)C(=O)N[C@H](CCCNC(=N)N)C(=O)N[C@@H](CCCNC(=N)N)C(=O)N[C@@H](CCCNC(=N)N)C(=O)O
25 µM: MBC [7] | MBC [29]
12.5 µM: MBC [36]
0.39 µM: MIC [38]
100 µM: MFC [6]
3.13 µM: MIC [2] | MIC [5] | MBC [12] | MIC [20] | MIC [21] | MBC [26] | MIC [40] | MBC [33]
> 100 µM: MBC [28]
6.25 µM: MBC [9] | MIC [10] | MIC [13] | MBC [19] | MIC [30]
0.5: fractional inhibitory concentration index (FICI) [41]
active: Activity [17] | Activity [18] | Activity [39]
> 25 µM: MIC [23]
1.56 µM: MBC [1] | MBC [4] | MBC [15] | MIC [22] | MIC [24] | MBC [32]
0.78 µM: MBC [3] | MIC [37] | MBC [8] | MIC [11] | MIC [14] | MIC [16] | MIC [25] | MIC [27] | MIC [31] | MIC [34] | MIC [35]
